Data taken from EP2435433B1, “(DIHYDRO)IMIDAZOISO[5,1-A]QUINOLINES AS FSH RECEPTOR AGONISTS FOR THE TREATMENT OF FERTILITY DISORDERS” (Merck Sharp & Dohme B.V., priority 2009, dated 2010).

Target: T1, human FSH receptor (Homo sapiens, UniProt P23945)
T1 construct: expressed in transfected cells; host or cells: Chinese Hamster Ovary (CHO) cells, stably transfected, cotransfected with CRE/promotor-firefly luciferase reporter
T1 sequence (P23945 18-695): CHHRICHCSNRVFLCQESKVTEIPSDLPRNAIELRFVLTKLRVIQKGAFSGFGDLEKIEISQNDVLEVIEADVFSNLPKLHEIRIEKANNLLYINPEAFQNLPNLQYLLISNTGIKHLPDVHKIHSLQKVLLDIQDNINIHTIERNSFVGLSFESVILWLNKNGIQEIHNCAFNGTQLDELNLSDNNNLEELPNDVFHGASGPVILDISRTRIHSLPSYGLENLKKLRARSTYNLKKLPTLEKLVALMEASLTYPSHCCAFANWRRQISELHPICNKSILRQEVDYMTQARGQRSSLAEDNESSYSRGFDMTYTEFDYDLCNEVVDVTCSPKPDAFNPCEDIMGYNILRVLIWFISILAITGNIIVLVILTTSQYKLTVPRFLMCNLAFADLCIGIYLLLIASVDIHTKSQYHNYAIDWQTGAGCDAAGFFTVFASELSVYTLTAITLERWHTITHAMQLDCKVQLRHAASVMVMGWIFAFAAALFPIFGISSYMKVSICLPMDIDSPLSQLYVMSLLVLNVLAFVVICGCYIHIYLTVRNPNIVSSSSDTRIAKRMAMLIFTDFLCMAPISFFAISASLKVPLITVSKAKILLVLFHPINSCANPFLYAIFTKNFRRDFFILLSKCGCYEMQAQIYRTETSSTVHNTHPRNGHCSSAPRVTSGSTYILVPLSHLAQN
Experiment: Agonistic activity of compounds at the human FSH receptor expressed in CHO cells, CRE/luciferase reporter (hFSHRago (CHO luc))
Type: cell-based
Details: CHO cells stably transfected with the human FSH receptor and CRE/firefly luciferase reporter; 4 hours of incubation; half-maximal stimulation relative to the compound's own maximal effect; read-out: hFSHRago (CHO luc) EC50
Summary of the method: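 CHO cells stably expressing human FSH receptor with CRE/firefly luciferase reporter, incubated 4 h at 37 °C with compounds (0.0316 nM–10.0 µM, duplicate, 1% DMSO final) in insulin/apo-transferrin-supplemented medium. Luminescence read after lysis; EC50 relative to compound's own maximum, efficacy as % of recombinant human FSH maximum.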

Row | EC50 | SMILES
1 | 315 nM | COc1cc2c(cc1OC)-c1c(-c3ccc(F)cc3)nc(C(=O)N3CCCN(C(C)=O)CC3)n1CC2 [Example 50e, 1-{4-[1-(4-Fluoro-phenyl)-8,9-dimethoxy-5,6-dihydro-imidazo[5,1-a]isoquinoline-3-carbonyl]-[1,4]diazepan-1-yl}-ethanone]
2 | 16 nM | COc1cc2c(cc1SC(C)C)-c1c(-c3cccs3)nc(C(=O)N(C)C(C)(C)C)n1CC2 [Example 52c, 9-Isopropylsulfanyl-8-methoxy-1-thiophen-2-yl-5,6-dihydro-imidazo[5,1-a]isoquinoline-3-carboxylic acid tert-butyl-methyl-amide]
